Assay [1] has as its system skin of normal rats. The assay is described as follows: Intradermal injection, cell migration / cellularity at the site of administration (histology). It is filed as in vivo, female Fischer rats. The note with it: 50 microlitre intradermal, 48 hours; for cellularity at the site of injection: versus saline. As to the method: The effects of intradermally injected glucose, maltose and maltopentaose on cell migration into the site of administration in the skin of normal rats. Healthy, specific pathogen free female Fischer rats 10-12 weeks of age (n=3) were anesthetised with ether and hair on their backs was clipped (electric miniclippers) from two areas of approximately 1.5 cm×4 cm either side of and paralleling the spinal column. The test and control substances were injected into the centre of 1 square cm defined areas. Substances were administered in such a fashion that each was injected into 4 different positions at least once in order to control for any possible anatomical positioning effect. Agents were dissolved in normal saline at a concentration of 100 mg/ml and sterile filtered prior to administration. Fifty microlitre injection volumes were given intradermally using 30 gauge needles and control injections consisted of 50 microlitres of sterile normal saline. Animals were sacrificed 48 hours following injection and injection sites were subjected to histological sectioning followed by microscopic examination.
The effects of intradermally injected dextran and maltopentaose on cell migration into the site of administration in the skin of normal rats. In a similar experiment to that outlined in Example 1 above, female Fischer rats, 10-12 weeks of age (n=3) were treated with 50 microlitre volumes of i) 50 mg/ml of clinical grade dextran (MW 71,400); ii) 50 mg/ml maltopentaose; or iii) normal saline using a 30 gauge needle. Skin injection sites were submitted for histological sectioning and examined microscopically 48 hours following injection.
The effects of intradermally injected maltotriose and maltopentaose on cell migration into the site of administration in the skin of normal rats. In a similar experiment to that outlined in Example 1 above, female Fischer rats, 10-12 weeks of age (n=2) were treated with 50 microlitre volumes of i) 100 mg/ml of maltotriose; ii) 100 mg/ml maltopentaose; or iii) normal saline using a 30 gauge needle. Skin injection sites were submitted for histological sectioning and examined microscopically 48 hours following injection.
The effects of intradermally injected maltopentaose and 1,4-beta-mannohexaose on cell migration into the site of administration in the skin of normal rats. In a similar experiment to that outlined in Example 1 above, female Fischer rats, 10-12 weeks of age (n=2) were treated with 50 microlitre volumes of i) 100 mg/ml of maltopentaose; ii) 100 mg/ml of 1,4-beta-mannohexaose; or iii) normal saline using a 30 gauge needle. Skin injection sites were submitted for histological sectioning and examined microscopically 48 hours following injection.
The effects of intradermally injected amylose and the O-phosphorylated mannan isolated from Pichia holstii on cell migration into the site of administration in the skin of normal rats. In a similar experiment to that outlined in Example 1 above, female Fischer rats, 10-12 weeks of age (n=2) were treated with 50 microlitre volumes of i) 50 mg/ml of amylose; ii) 50 mg/ml of the O-phosphorylated mannan from Pichia holstii; or iii) normal saline using a 30 gauge needle. Skin injection sites were submitted for histological sectioning and examined microscopically 48 hours following injection. […]

Assay [2] relates to cutaneous tissue. The assay is described as follows: Dermal application: cellularity and collagen deposition in cutaneous tissue (general statements). In kind it is in vivo. The note with it: general statement in the description.
Assay [3] has as its system skin (dermis) fibroblasts. Description: Intradermal injection into abdominal skin, cellularity, collagen (Gomori's stain) and fibroblasts (prolyl 4-hydroxylase immunohistochemistry). In kind it is in vivo, female Wistar rats. The note with it: Example 7, 50 mg/ml in sterile saline, 50 microliters intradermal; for dermal collagen (Gomori's staining) / fibroblast-like cells / cellular infiltrate in the dermis: 48 hours and 7 days; for fibroblast-like cells / cellular infiltrate in the dermis: H&E. As to the method:
Following ether anaesthesia, hair was clipped from skin on both sides of the abdominal region of 8-10 week old female Wistar rats. Intradermal injections (via a 30 gauge needle) of either sterile saline (50 microliters), PM5 (50 microliters, 50 mg/ml in sterile saline) or amylopectin (50 microliters, 50 mg/ml in sterile saline) were placed in the centre of 1 cm^2 defined areas of abdominal skin. Forty-eight hours and 7 days after injection, groups of animals were euthanased by CO2 overdose and skin samples were examined following the preparation of 6 μm histological sections that were stained with H&E and Gomori's (collagen) stain. In addition, immunohistochemistry using a mouse anti-rat prolyl 4-hydroxylase monoclonal antibody (Chemicon International Inc) in paraffin embedded skin sections was used to identify fibroblasts within the dermis.

[4] abbreviates: Example 1, 100 mg/ml in normal saline.

With amylose, in assay [1] (Example 5, 50 mg/ml), the “cellularity at the site of injection” value is listed as “increases in cellularity”.

With `OC[C@H]1O[C@@H](O[C@H]2[C@H](O)[C@H](O)[C@H](O[C@H]3[C@H](O)[C@H](O)[C@H](O[C@H]4[C@H](O)[C@H](O)[C@H](O[C@H]5[C@H](O)[C@H](O)[C@H](O[C@H]6[C@H](O)[C@H](O)C(O)O[C@@H]6CO)O[C@@H]5CO)O[C@@H]4CO)O[C@@H]3CO)O[C@@H]2CO)[C@@H](O)[C@@H](O)[C@@H]1O` (stereo partly drawn) [1,4-beta-mannohexaose], the “increase in cellularity and collagen deposition in cutaneous tissue / tissue remodelling effect” value in assay [2] was “effective tissue remodelling agents and effective anti-wrinkle compounds”. Also, in assay [1] (Example 4, 100 mg/ml), the “cellularity, 1,4-beta-mannohexaose injection sites versus maltopentaose sites” value was “the results were not significantly different” and the “cellularity at the site of injection” value is recorded as “increases in cellularity”.

In the case of `OC[C@H]1O[C@@H](O[C@H]2[C@H](O)[C@H](O)[C@H](O[C@H]3[C@H](O)[C@H](O)[C@H](O[C@H]4[C@H](O)[C@H](O)[C@H](O[C@H]5[C@H](O)[C@H](O)C(O)O[C@@H]5CO)O[C@@H]4CO)O[C@@H]3CO)O[C@@H]2CO)[C@@H](O)[C@@H](O)[C@@H]1O` (stereo partly drawn) [1,4-beta-D-mannopentaose], the “increase in cellularity and collagen deposition in cutaneous tissue / tissue remodelling effect” value in assay [2] was “effective tissue remodelling agents and effective anti-wrinkle compounds”.

Take maltohexaose: the “increase in cellularity and collagen deposition in cutaneous tissue / tissue remodelling effect” value in assay [2] is “effective tissue remodelling agents and effective anti-wrinkle compounds”.

With amylopectin, the “increase in cellularity and collagen deposition in cutaneous tissue / tissue remodelling effect” value in assay [2] is given as “particularly effective in this regard”. In assay [3], the “fibroblast numbers (immunohistochemical staining, anti-rat prolyl 4-hydroxylase)” value is “influx of fibroblastoid cells”; the “dermal collagen (Gomori's staining)” value is reported as “increase in dermal collagen”; the “fibroblast-like cells / cellular infiltrate in the dermis” value was “marked “fibroblast-like” cellular infiltrate in both the upper and lower regions of the dermis”. The “fibroblast numbers (immunohistochemical staining, anti-rat prolyl 4-hydroxylase)” value in assay [3] (listed as Amylopectin) was “increase in dermal collagen (as indicated Gomori's staining) (FIG. 3), and fibroblast numbers”.

In the case of `O=P(O)(O)OC[C@H]1O[C@H](O[C@@H]2[C@H](O)[C@@H](O[C@@H]3[C@H](O)[C@@H](O[C@@H]4[C@H](O)[C@@H](O[C@H]5[C@@H](O)[C@H](O)[C@@H](CO)O[C@@H]5O)O[C@H](CO)[C@H]4O)O[C@H](CO)[C@H]3O)O[C@H](CO)[C@H]2O)[C@@H](O)[C@@H](O)[C@@H]1O` [PM5, 6-O-phospho-alpha-D-mannose-(1,3)-alpha-D-mannose-(1,3)-alpha-D-mannose-(1,3)-alpha-D-mannose-(1,2)-alpha-D-mannose], the “increase in cellularity and collagen deposition in cutaneous tissue / tissue remodelling effect” value in assay [2] was “effective tissue remodelling agents and effective anti-wrinkle compounds”. Further, in assay [3], the “dermal collagen (Gomori's staining)” value is listed as “collagen deposited in the lower dermal layers” and the “fibroblast-like cells / cellular infiltrate in the dermis” value is “increase in fibroblast-like cells”.

Take `OC[C@H]1O[C@H](O[C@H]2[C@H](O)[C@@H](O)C(O)O[C@@H]2CO)[C@H](O)[C@@H](O)[C@@H]1O` (mixture of isomers) [maltose, reference compound]: the “cellularity at the site of injection” value in assay [1] (setting [4]) was “neither saline, glucose nor maltose had any effect on cellularity”.

Turning to maltopentaose, the “increase in cellularity and collagen deposition in cutaneous tissue / tissue remodelling effect” value in assay [2] was “effective tissue remodelling agents and effective anti-wrinkle compounds”. For the same molecule, the “cellularity at the site of injection” value in assay [1] (setting [4]) is “significant increase in cellularity (P=0.001) versus saline”; in assay [1] (Example 2, 50 mg/ml), “clear and significant difference in cellularity versus saline”; in assay [1] (Example 3, 100 mg/ml) it was “clear and significant difference in cellularity versus saline”; in assay [1] (Example 4, 100 mg/ml), “increases in cellularity”.

Consider maltotriose [reference compound], for which, in assay [1] (Example 3, 100 mg/ml), the “cellularity at the site of injection” value is given as “no increase in cellularity”.

In the case of dextran [reference compound], in assay [1] (Example 2, 50 mg/ml), the “cellularity at the site of injection” value is on record as “increased cellularity was noticed in the dextran injection sites but this was not statistically significantly different from the saline injected sites”.

With maltoheptaose, the “increase in cellularity and collagen deposition in cutaneous tissue / tissue remodelling effect” value in assay [2] is “effective tissue remodelling agents and effective anti-wrinkle compounds”.
